Assay results as given in ChEMBL document CHEMBL3044781, “Triterpenoid saponins with antifeedant activities from stem bark of Catunaregam spinosa (Rubiaceae) against Plutella xylostella (Plutellidae)” (2011).

These compounds were tested on Plutella xylostella (assay: Antifeedant activity against second-instar larval stage of Plutella xylostella (diamondback moth) in cabbage leaf disks assessed as consumed leaf area treated for 10 secs before larval infestation measured within 48 hr by non-choice leaf disc method).
Format: functional

Point of comparison: `CC1(C)CC[C@]2(C(=O)O[C@@H]3O[C@H](CO)[C@@H](O)[C@H](O)[C@H]3O)CC[C@]3(C)C(=CC[C@@H]4[C@@]5(C)CC[C@H](O[C@@H]6O[C@H](CO)[C@@H](O)[C@H](O[C@@H]7O[C@H](CO)[C@@H](O)[C@H](O)[C@H]7O)[C@H]6O[C@@H]6OC[C@@H](O)[C@H](O)[C@H]6O)C(C)(C)[C@@H]5CC[C@]43C)[C@@H]2[C@@H]1O` [CATUNAROSIDE], AFC50 608.42 µg/mL. Against it:
- CC1(C)CC[C@]2(C(=O)O[C@@H]3O[C@H](CO)[C@@H](O)[C@H](O)[C@H]3O)CC[C@]3(C)C(=CC[C@@H]4[C@@]5(C)CC[C@H](O[C@@H]6O[C@H](CO)[C@@H](O)[C@H](O[C@@H]7O[C@H](CO)[C@@H](O)[C@H](O)[C@H]7O)[C@H]6O[C@@H]6O[C@H](CO)[C@@H](O)[C@H](O)[C@H]6O)C(C)(C)[C@@H]5CC[C@]43C)[C@@H]2C1 [ARALIA-SAPONIN V] — 9-fold higher, 5467.82 µg/mL
- CC1(C)CC[C@]2(C(=O)O[C@@H]3O[C@H](CO)[C@@H](O)[C@H](O)[C@H]3O)CC[C@]3(C)C(=CC[C@@H]4[C@@]5(C)CC[C@H](O[C@@H]6O[C@H](CO)[C@@H](O)[C@H](O[C@@H]7O[C@H](CO)[C@@H](O)[C@H](O)[C@H]7O)[C@H]6O[C@@H]6OC[C@@H](O)[C@H](O)[C@H]6O)C(C)(C)[C@@H]5CC[C@]43C)[C@@H]2C1 [ARALIASAPONIN IV] — 1.8-fold lower, 335.54 µg/mL
- CC1(C)CC[C@]2(C(=O)O)CC[C@]3(C)C(=CC[C@@H]4[C@@]5(C)CC[C@H](O[C@@H]6O[C@H](CO)[C@@H](O)[C@H](O[C@@H]7O[C@H](CO)[C@@H](O)[C@H](O)[C@H]7O)[C@H]6O[C@@H]6OC[C@@H](O)[C@H](O)[C@H]6O)C(C)(C)[C@@H]5CC[C@]43C)[C@@H]2[C@@H]1O [CATUNAROSIDE A] — 2.5-fold lower, 243.23 µg/mL
- C[C@@H]1O[C@@H](O[C@H]2[C@H](O[C@H]3CC[C@]4(C)[C@H]5CC=C6[C@@H]7CC(C)(C)CC[C@]7(C(=O)O)CC[C@@]6(C)[C@]5(C)CC[C@H]4C3(C)C)O[C@H](CO)[C@@H](O)[C@@H]2O[C@@H]2O[C@H](CO)[C@@H](O)[C@H](O)[C@H]2O)[C@H](O)[C@H](O)[C@H]1O [CATUNAROSIDE B] — 1.6-fold lower, 369.63 µg/mL
- C[C@@H]1O[C@@H](O[C@H]2[C@H](O[C@H]3CC[C@]4(C)[C@H]5CC=C6[C@@H]7[C@H](O)C(C)(C)CC[C@]7(C(=O)O[C@@H]7O[C@H](CO)[C@@H](O)[C@H](O)[C@H]7O)CC[C@@]6(C)[C@]5(C)CC[C@H]4C3(C)C)O[C@H](CO)[C@@H](O)[C@@H]2O[C@@H]2O[C@H](CO)[C@@H](O)[C@H](O)[C@H]2O)[C@H](O)[C@H](O)[C@H]1O [CATUNAROSIDE C] — 1.6-fold higher, 946.13 µg/mL
- CC1(C)CC[C@]2(C(=O)O)CC[C@]3(C)C(=CC[C@@H]4[C@@]5(C)CC[C@H](O[C@@H]6O[C@H](CO)[C@@H](O)[C@H](O[C@@H]7O[C@H](CO)[C@@H](O)[C@H](O)[C@H]7O)[C@H]6O[C@@H]6OC[C@@H](O)[C@H](O)[C@H]6O)C(C)(C)[C@@H]5CC[C@]43C)[C@@H]2C1 [SWARTZIATRIOSIDE] — 5.7-fold lower, 106.73 µg/mL
